Source: patent US6495330B1, “Materials and methods relating to the diagnosis and treatment of pre-eclampsia and diabetes” (Rodaris Pharmaceuticals Limited, priority 1996, dated 2002)

System: rat adipocytes
Assay: IPG A-type bioassay: stimulation of lipogenesis ([U14C] glucose into lipids) in adipocytes
Format: cell-based
Conditions: insulin standard assayed at the same time
Protocol: The activity of P- and A-type IPGs in urine and placental extracts were studied using specific bioassay procedures. IPG P-type was determined using the activation of PDH phosphatase. The PDH complex and PDH phosphatase (metal-dependent form) were prepared from beef heart as described by Lilley et al. and the assay of the activation of the phosphatase was performed by the spectrophotometric variant of the two-stage system described by these authors. This assay is considered to be a characteristic feature of IPG P-type (see Larner et al.) . IPG A-type was determined by the stimulation of lipogenesis as measured by the incorporation of [U^14C] glucose into the lipids of adipocytes isolated from epididymal fat pads by the method of Rodbell. A high degree of specificity for IPG A-type was found for this bioassay.
A straight line relationship between added IPGs and the stimulation of PDH phosphatase activity (IPG P-type) and lipogenesis in intact adipocytes (IPG A-type) was obtained; this relationship held at least up to a stimulation of +250%. These observations provided a basis for a unit to be defined and used for the purpose of comparison of yields of IPGs from different tissues and urine samples.
A unit of IPG is defined as the amount causing a 50% activation in the basal level of the test system.

Substance: insulin [insulin standard]
- stimulation of lipogenesis above base-line: +258%
